This passage reports IC50 results from ChEMBL document CHEMBL4251729, “Novel Triterpenone for Treatment of Viral Diseases-HIV Inhibitors” (ACS Med Chem Lett, 2018).

The IC50 is the point on the concentration scale where inhibition reaches its midpoint.

SMILES strings stand for the structures. Bounds are passed on as bounds.

For assay [1], the system named is Human immunodeficiency virus 1. Description: Antiviral activity against HIV1 92HT599 infected in human MT2 cells assessed as reduction in p24 production in absence of serum by ELISA. It is filed as functional, organism-based. For orientation: An ELISA detects its analyte on a solid surface through an enzyme-linked reagent.
Assay [2] deals with Human immunodeficiency virus 1. Description: Antiviral activity against HIV1 92HT599 infected in human MT2 cells assessed as reduction in p24 production in presence of 40% serum by ELISA. It is filed as functional, organism-based. The following applies: Human immunodeficiency virus 1, 92HT599, MT2.
Setting [3] is: Human immunodeficiency virus 1, 92HT599, MT2.

Regarding `CC(C)C1=C2[C@H]3CC[C@@H]4[C@@]5(C)CC[C@H](OC(=O)[C@H]6C[C@@H](C(=O)O)C6(C)C)C(C)(C)[C@@H]5CC[C@@]4(C)[C@]3(C)CC[C@@]2(c2nnc(-c3ccc(Cl)cc3)o2)CC1=O`, the IC50 in assay [1] (setting [3]) and in assay [2] was less than 10 nM each time.

For `CC(C)C1=C2[C@H]3CC[C@@H]4[C@@]5(C)CC[C@H](OC(=O)[C@H]6C[C@@H](C(=O)O)C6(C)C)C(C)(C)[C@@H]5CC[C@@]4(C)[C@]3(C)CC[C@@]2(c2ncc(-c3ccc(F)cc3)[nH]2)CC1=O`, the half-inhibitory concentration (IC50) in assay [1] (setting [3]) was less than 10 nM; in assay [2] it was more than 50 nM.

For `CC(C)C1=C2[C@H]3CC[C@@H]4[C@@]5(C)CC[C@H](OC(=O)[C@H]6C[C@@H](C(=O)O)C6(C)C)C(C)(C)[C@@H]5CC[C@@]4(C)[C@]3(C)CC[C@@]2(c2ncc(-c3ccc(Cl)cc3)n2CCN(C)C)CC1=O` [listing 1 of 2 here], in assay [1] (setting [3]), the 50% inhibitory concentration (IC50) is 10 to 50 nM.

For `CC(C)C1=C2[C@H]3CC[C@@H]4[C@@]5(C)CC[C@H](OC(=O)[C@H]6C[C@@H](C(=O)O)C6(C)C)C(C)(C)[C@@H]5CC[C@@]4(C)[C@]3(C)CC[C@@]2(c2ncc(-c3ccc(Cl)cc3)[nH]2)CC1=O`, the IC50 in assay [1] (setting [3]) was less than 10 nM; in assay [2], 10 to 50 nM.

Take `CC(C)C1=C2[C@H]3CC[C@@H]4[C@@]5(C)CC[C@H](OC(=O)[C@H]6C[C@@H](C(=O)O)C6(C)C)C(C)(C)[C@@H]5CC[C@@]4(C)[C@]3(C)CC[C@@]2(c2ncc(-c3ccccc3)[nH]2)CC1=O`: the concentration for half-maximal inhibition (IC50) was less than 10 nM in assay [1] (setting [3]) and 10 to 50 nM in assay [2].

Turning to `CC(C)C1=C2[C@H]3CC[C@@H]4[C@@]5(C)CC[C@H](OC(=O)[C@H]6C[C@@H](C(=O)O)C6(C)C)C(C)(C)[C@@H]5CC[C@@]4(C)[C@]3(C)CC[C@@]2(c2ncc(-c3ccc(Cl)cc3)n2CCN(C)C)CC1=O` [listing 2 of 2 here], the values for the half-maximal inhibitory concentration (IC50) in assay [1] and in assay [2] were less than 10 nM and more than 50 nM, respectively.
